Measurements from patent publication US7750003B2, “Compounds-943” (AstraZeneca AB, priority 2006, dated 2010).

Target: recombinant mTOR (FLAG-tagged, residues 1362-2549) (Homo sapiens, UniProt P42345)
Test: In vitro mTOR kinase assay (Test (a), AlphaScreen)
Format: biochemical
Details: ATP 20 μM, read-out: Test (a): IC50 versus mTOR kinase
In short: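 AlphaScreen read-out: a phospho-T389 p70 S6K antibody on acceptor beads captures the phosphorylated biotin-peptide on donor beads, with signal loss indicating inhibition.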

Sequence of recombinant mTOR (FLAG-tagged, residues 1362-2549) (P42345 1362-2549): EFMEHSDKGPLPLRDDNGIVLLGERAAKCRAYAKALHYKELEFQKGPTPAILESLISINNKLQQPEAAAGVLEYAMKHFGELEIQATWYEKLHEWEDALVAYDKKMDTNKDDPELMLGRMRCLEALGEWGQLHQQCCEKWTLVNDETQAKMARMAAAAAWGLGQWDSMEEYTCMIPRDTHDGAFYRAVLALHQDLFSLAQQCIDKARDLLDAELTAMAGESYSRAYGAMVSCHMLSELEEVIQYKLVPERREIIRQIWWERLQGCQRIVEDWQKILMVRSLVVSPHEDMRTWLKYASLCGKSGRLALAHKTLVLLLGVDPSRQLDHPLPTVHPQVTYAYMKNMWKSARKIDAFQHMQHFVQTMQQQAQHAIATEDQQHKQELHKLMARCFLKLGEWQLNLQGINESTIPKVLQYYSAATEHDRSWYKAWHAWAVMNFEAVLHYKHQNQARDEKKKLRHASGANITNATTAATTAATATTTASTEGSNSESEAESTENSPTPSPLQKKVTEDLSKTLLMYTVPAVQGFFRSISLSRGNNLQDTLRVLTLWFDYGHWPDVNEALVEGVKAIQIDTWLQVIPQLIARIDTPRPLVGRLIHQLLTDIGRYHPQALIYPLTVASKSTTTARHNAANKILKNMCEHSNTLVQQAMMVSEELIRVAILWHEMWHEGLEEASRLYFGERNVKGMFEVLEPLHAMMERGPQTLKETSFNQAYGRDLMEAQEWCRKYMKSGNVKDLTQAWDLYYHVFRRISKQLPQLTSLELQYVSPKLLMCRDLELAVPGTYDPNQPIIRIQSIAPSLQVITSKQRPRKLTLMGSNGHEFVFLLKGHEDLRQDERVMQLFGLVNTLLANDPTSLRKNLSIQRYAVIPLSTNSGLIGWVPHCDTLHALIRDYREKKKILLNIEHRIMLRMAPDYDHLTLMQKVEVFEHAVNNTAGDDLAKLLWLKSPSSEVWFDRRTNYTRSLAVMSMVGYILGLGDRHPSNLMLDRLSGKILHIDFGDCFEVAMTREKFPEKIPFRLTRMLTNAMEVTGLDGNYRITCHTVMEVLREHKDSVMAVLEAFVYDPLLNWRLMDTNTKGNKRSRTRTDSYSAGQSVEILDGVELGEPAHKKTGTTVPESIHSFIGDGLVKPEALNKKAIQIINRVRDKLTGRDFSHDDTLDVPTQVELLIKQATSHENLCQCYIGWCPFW

IC50 [µM]	SMILES
0.04	COCCNCc1cc(N2CCOC[C@@H]2C)nc(-c2ccc(NC(=O)NC3CC3)cc2)n1 [Example 49c, 3-cyclopropyl-1-[4-[4-[(2-methoxyethylamino)methyl]-6-[(3S)-3-methylmorpholin-4-yl]pyrimidin-2-yl]phenyl]urea]
1.6	C[C@H]1COCCN1Cc1cc(N2CCOC[C@@H]2C)nc(-c2ccc(NC(=O)NC3CC3)cc2)n1 [Example 49l, 3-cyclopropyl-1-[4-[4-[(3S)-3-methylmorpholin-4-yl]-6-[[(3S)-3-methylmorpholin-4-yl]methyl]pyrimidin-2-yl]phenyl]urea]
0.097	C[C@H]1COCCN1c1cc(CS(C)(=O)=O)nc(-c2cnc(NC(=O)NC3CC3)s2)n1 [Example 46i, 3-cyclopropyl-1-[5-[4-[(3S)-3-methylmorpholin-4-yl]-6-(methylsulfonylmethyl)pyrimidin-2-yl]-1,3-thiazol-2-yl]urea]
0.97	CCNC(=O)Nc1ncc(-c2nc(N3CCOC[C@@H]3C)cc(C(C)(C)S(C)(=O)=O)n2)s1 [Example 47d, 1-ethyl-3-[5-[4-[(3S)-3-methylmorpholin-4-yl]-6-(2-methylsulfonylpropan-2-yl)pyrimidin-2-yl]-1,3-thiazol-2-yl]urea]
0.41	CN(Cc1ccccc1)C(=O)Nc1ccc(-c2nc(CS(C)(=O)=O)cc(N3CCOCC3)n2)cc1 [Example 45r, 1-benzyl-1-methyl-3-[4-[4-(methylsulfonylmethyl)-6-morpholin-4-yl-pyrimidin-2-yl]phenyl]urea]
0.39	C[C@H]1COCCN1c1cc(CS(C)(=O)=O)nc(-c2ccc(NC(=O)N3CCC(N(C)C)CC3)cc2)n1 [Example 45ab, 4-dimethylamino-N-[4-[4-[(3S)-3-methylmorpholin-4-yl]-6-(methylsulfonylmethyl)pyrimidin-2-yl]phenyl]piperidine-1-carboxamide]
0.032	C[C@H]1COCCN1c1cc(CNCCCN(C)C)nc(-c2ccc(NC(=O)NC3CC3)cc2)n1 [Example 49e, 3-cyclopropyl-1-[4-[4-[(3-dimethylaminopropylamino)methyl]-6-[(3S)-3-methylmorpholin-4-yl]pyrimidin-2-yl]phenyl]urea]
0.63	CS(=O)(=O)Cc1cc(N2CCOCC2)nc(-c2ccc(NC(=O)N3CCCCC3)cc2)n1 [Example 45a, N-[4-[4-(methylsulfonylmethyl)-6-morpholin-4-yl-pyrimidin-2-yl]phenyl]piperidine-1-carboxamide]

The remaining lines, values behind:

SMILES	IC50 [µM]
C[C@H]1COCCN1c1cc(CS(C)(=O)=O)nc(-c2ccc(NC(=O)N3CCCC(O)C3)cc2)n1 (stereo partly drawn) [Example 35i, 3-hydroxy-N-[4-[4-[(3S)-3-methylmorpholin-4-yl]-6-(methylsulfonylmethyl)pyrimidin-2-yl]phenyl]piperidine-1-carboxamide]	0.77
C[C@H]1COCCN1c1cc(CS(C)(=O)=O)nc(-c2ccc(NC(=O)N3CCCC3)cc2)n1 [Example 35c, N-[4-[4-[(3S)-3-methylmorpholin-4-yl]-6-(methylsulfonylmethyl)pyrimidin-2-yl]phenyl]pyrrolidine-1-carboxamide]	3.4
C[C@H]1COCCN1c1cc(CS(C)(=O)=O)nc(-c2ccc(NC(=O)N3CCC(O)CC3)cc2)n1 [Example 35e, 4-hydroxy-N-[4-[4-[(3S)-3-methylmorpholin-4-yl]-6-(methylsulfonylmethyl)pyrimidin-2-yl]phenyl]piperidine-1-carboxamide]	2.5
CCNC(=O)Nc1ccc(-c2nc(CS(=O)(=O)C(C)C)cc(N3CCOC[C@@H]3C)n2)cc1 [Example 20q, 1-ethyl-3-[4-[4-[(3S)-3-methylmorpholin-4-yl]-6-(propan-2-ylsulfonylmethyl)pyrimidin-2-yl]phenyl]urea]	0.039
CC(=O)NCCS(=O)(=O)Cc1cc(N2CCOC[C@@H]2C)nc(-c2ccc(NC(=O)N(C)C)cc2)n1 [Example 16, N-[2-[[2-[4-(Dimethylcarbamoylamino)phenyl]-6-[(3S)-3-methylmorpholin-4-yl]pyrimidin-4-yl]methylsulfonyl]ethyl]acetamide]	4
C[C@H]1COCCN1c1cc(CS(C)(=O)=O)nc(-c2ccc(NC(=O)N(C)C)c(F)c2)n1 [Example 2f, 3-[2-fluoro-4-[4-[(3S)-3-methylmorpholin-4-yl]-6-(methylsulfonylmethyl)pyrimidin-2-yl]phenyl]-1,1-dimethyl-urea]	1.7
CNC(=O)Nc1c(F)cc(-c2nc(N3CCOC[C@@H]3C)cc(C(C)(C)S(C)(=O)=O)n2)cc1F [Example 24ab, 1-[2,6-difluoro-4-[4-[(3S)-3-methylmorpholin-4-yl]-6-(2-methylsulfonylpropan-2-yl)pyrimidin-2-yl]phenyl]-3-methyl-urea]	0.042
C[C@H]1COCCN1c1cc(CS(=O)(=O)c2ccccc2)nc(-c2ccc(NC(=O)Nc3ccccc3)cc2)n1 [Example 12, 1-[4-[4-(Benzenesulfonylmethyl)-6-[(3S)-3-methylmorpholin-4-yl]pyrimidin-2-yl]phenyl]-3-phenyl-urea]	0.23
C[C@H]1COCCN1c1cc(C(C)(C)S(C)(=O)=O)nc(-c2cnc(NC(=O)NCc3cnn(C)c3)nc2)n1 [Example 24z, 1-[5-[4-[(3S)-3-methylmorpholin-4-yl]-6-(2-methylsulfonylpropan-2-yl)pyrimidin-2-yl]pyrimidin-2-yl]-3-[(1-methylpyrazol-4-yl)methyl]urea]	0.37
CNC(=O)Nc1ccc(-c2nc(CS(=O)(=O)c3ccccc3C)cc(N3CCOC[C@@H]3C)n2)cc1 [Example 33e, 3-methyl-1-[4-[4-[(3S)-3-methylmorpholin-4-yl]-6-[(2-methylphenyl)sulfonylmethyl]pyrimidin-2-yl]phenyl]urea]	0.088
CN1CCC(NC(=O)Nc2ccc(-c3nc(CS(=O)(=O)c4ccccc4)cc(N4CCOCC4)n3)cc2)CC1 [Example 20d, 3-[4-[4-(benzenesulfonylmethyl)-6-morpholin-4-yl-pyrimidin-2-yl]phenyl]-1-(1-methyl-4-piperidyl)urea]	1.6
C[C@H]1COCCN1c1cc(CS(C)(=O)=O)nc(-c2ccc(NC(=O)Nc3ncccn3)cc2)n1 [Example 22a, 1-[4-[4-[(3S)-3-methylmorpholin-4-yl]-6-(methylsulfonylmethyl)pyrimidin-2-yl]phenyl]-3-pyrimidin-2-yl-urea]	0.06
CC(=O)NCCS(=O)(=O)Cc1cc(N2CCOC[C@@H]2C)nc(-c2ccc(NC(=O)NCc3cnn(C)c3)cc2)n1 [Example 53, N-[2-[[6-[(3S)-3-methylmorpholin-4-yl]-2-[4-[(1-methylpyrazol-4-yl)methylcarbamoylamino]phenyl]pyrimidin-4-yl]methylsulfonyl]ethyl]acetamide]	0.64
CCNC(=O)Nc1ccc(-c2nc(CS(=O)(=O)c3ccccc3)cc(N3CCOCC3)n2)cc1 [Example 20a, 3-[4-[4-(benzenesulfonylmethyl)-6-morpholin-4-yl-pyrimidin-2-yl]phenyl]-1-ethyl-urea]	0.15
CC(=O)Nc1ccc(S(=O)(=O)Cc2cc(N3CCOC[C@@H]3C)nc(-c3ccc(NC(=O)NC4CC4)cc3)n2)cc1 [Example 43c, N-[4-[[2-[4-(cyclopropylcarbamoylamino)phenyl]-6-[(3S)-3-methylmorpholin-4-yl]pyrimidin-4-yl]methylsulfonyl]phenyl]acetamide]	0.013
CCNC(=O)Nc1ccc(-c2nc(N3CCOC[C@@H]3C)cc(C(C)(C)S(C)(=O)=O)n2)cc1 [Example 21g, 1-ethyl-3-[4-[4-[(3S)-3-methylmorpholin-4-yl]-6-(2-methylsulfonylpropan-2-yl)pyrimidin-2-yl]phenyl]urea]	0.02
C[C@H]1COCCN1c1cc(CS(C)(=O)=O)nc(-c2ccc(NC(=O)N3CCC3)cc2)n1 [Example 2, N-[4-[4-[(3S)-3-methylmorpholin-4-yl]-6-(methylsulfonylmethyl)pyrimidin-2-yl]phenyl]azetidine-1-carboxamide]	0.31
CC(C)S(=O)(=O)Cc1cc(N2CCOC[C@@H]2C)nc(-c2ccc(NC(=O)NC3CCN(C)CC3)cc2)n1 [Example 20t, 1-[4-[4-[(3S)-3-methylmorpholin-4-yl]-6-(propan-2-ylsulfonylmethyl)pyrimidin-2-yl]phenyl]-3-(1-methyl-4-piperidyl)urea]	0.6
C[C@H]1COCCN1c1cc(CS(=O)(=O)c2ccccc2)nc(-c2ccc(NC(=O)NC3CCN(C)CC3)cc2)n1 [Example 20i, 1-[4-[4-(benzenesulfonylmethyl)-6-[(3S)-3-methylmorpholin-4-yl]pyrimidin-2-yl]phenyl]-3-(1-methyl-4-piperidyl)urea]	0.7
C[C@H]1COCCN1c1cc(C(C)(C)S(C)(=O)=O)nc(-c2ccc(NC(=O)Nc3ccc(F)cn3)cc2)n1 [Example 24y, 3-(5-fluoropyridin-2-yl)-1-[4-[4-[(3S)-3-methylmorpholin-4-yl]-6-(2-methylsulfonylpropan-2-yl)pyrimidin-2-yl]phenyl]urea]	2.2
C[C@H]1COCCN1c1cc(CS(C)(=O)=O)nc(-c2ccc(NC(=O)Nc3cc[nH]c(=O)c3)cc2)n1 [Example 22g, 1-[4-[4-[(3S)-3-methylmorpholin-4-yl]-6-(methylsulfonylmethyl)pyrimidin-2-yl]phenyl]-3-(2-oxo-1H-pyridin-4-yl)urea]	0.0045
CNC(=O)Nc1ccc(-c2nc(CS(C)(=O)=O)cc(N3CCOC[C@@H]3C)n2)cc1 [Example 2d, 1-methyl-3-[4-[4-[(3S)-3-methylmorpholin-4-yl]-6-(methylsulfonylmethyl)pyrimidin-2-yl]phenyl]urea]	0.0068
CNC(=O)Nc1ccc(-c2nc(N3CCOCC3)cc(C(C)(C)S(C)(=O)=O)n2)cc1 [Example 21, 3-Methyl-1-[4-[4-(2-methylsulfonylpropan-2-yl)-6-morpholin-4-yl-pyrimidin-2-yl]phenyl]urea]	0.05
COCCCNC(=O)Nc1ccc(-c2nc(CS(C)(=O)=O)cc(N3CCOC[C@@H]3C)n2)cc1 [Example 35b, 3-(3-methoxypropyl)-1-[4-[4-[(3S)-3-methylmorpholin-4-yl]-6-(methylsulfonylmethyl)pyrimidin-2-yl]phenyl]urea]	0.42
